# Assays:
# [1] = system: KRAS-mutated cholangiocarcinoma cell line OZ; assay: Cell viability assay, CellTiter-Glo (CTG) method, OZ; format: cell-based; conditions: 1 μM Fulvestrant; 1 nM Estradiol; 168 hours; inhibition rate increased with concentration; FIG. 4
# Method: (§1) Fulvestrant was assayed for its anti-cholangiocarcinoma activity using the CTG method. The cell lines used were KRAS-mutated cholangiocarcinoma cell lines HUCCT1 and OZ, as well as KRAS wild-type cholangiocarcinoma cell line HCCC-9810. The efficacy of treatment by a medicament for cholangiocarcinoma was determined by comparing the difference in growth between KRAS-mutant-type group and wild-type group after treatment by a medicament. The specific steps were as follows:
# (§2) 1) Different experimental cell lines were sub-cultured into 96-well plates. 100 μL of PBS was added around the 96-well plates as a blank, where the cholangiocarcinoma cell lines used were HUCCT, OZ and HCCC-9810. The cells in the 96-well plates were cultured overnight at 37° C., 5% CO2 and 95% humidity.
# (§3) 2) The cell culture medium in the 96-well plate was discarded and 100 μL of phenol red-free RPMI1640 culture medium containing 5% Charcoal Stripped FBS was added.
# (§4) 3) The cells in the 96-well plate with the changed medium were cultured at 37° C., 5% CO2, 95% humidity for another 48 hours. […]
# (§5) 9) On the 11th day of the culture, CellTiter-Glo® reagent and medicament-treated cell culture plates were placed at room temperature for 30 minutes to equilibrate. […] Chemiluminescence values were read with EnVision®. […]
# [2] = system: KRAS-mutated cholangiocarcinoma cell line HUCCT1; assay: Cell viability assay, CellTiter-Glo (CTG) method, HUCCT1; format: cell-based; conditions: concentration higher than 2.5 μM; 1 nM Estradiol; 168 hours; lower inhibition rate than OZ; FIG. 4
# Method: as §1, §2, §3, §4, §5
smiles,measurement,setting,value
C[C@]12CC[C@@H]3c4ccc(O)cc4C[C@@H](CCCCCCCCC[S+]([O-])CCCC(F)(F)C(F)(F)F)[C@H]3[C@@H]1CC[C@@H]2O (some centres unmarked) [Fulvestrant],growth inhibition of OZ,[1],significant growth inhibition
same,growth inhibition of HuCCT1,[2],significantly inhibited

# Reference: US20230212584A1, “MEDICAMENT USED FOR TREATING CHOLANGIOCARCINOMA WITH KRAS MUTATIONS” (GENOMICARE BIOTECHNOLOGY (SHANGHAI) CO., LTD., priority 2022, published 2023)
